We go through 1 compound from patent US20180045675A1, “SINGLE-CELL INTRACELLULAR NANO-PH PROBES” (The Regents of the University of California, priority 2015, published 2018).

Each structure is given as a SMILES string. A value given as a limit tells only on which side of the number the result lay.

The subject of the assay is MDA-MB-231 cells. Briefly: real-time intracellular pH measurement with nano-pH probe during chloride channel blocker exposure. It is filed as cell-based, human. To be noted: single MDA-MB-231 cells. From the text:
Sensing setup. To carry out analytical characterization experiments of chitosan-modified nanopipette sensors, a two-electrode setup connected to a potentiostat (1030C, CH Instruments Inc.) was used for sensing. A 125 μm platinum wire (Goodfellow Corporation) placed into nanopipettes filled with electrolyte served as the working electrode while a pseudo Ag/AgCl electrode placed in bulk solution (PBS or cell media) served as the reference electrode. Linear sweep voltammetry was utilized for all in vitro measurements with a scan rate of 0.1 V/sec.
Intracellular measurements were performed by combining the potentiostat and scanning ion conductance microscope (SICM) with a low-noise mechanical switch. The SICM setup consisted of an Axopatch 200B amplifier (Molecular Devices) for current feedback measurements, a MP-285 motorized micromanipulator (Sutter Instrument) for coarse positioning of the nano-pH probe, a piezo stage (NanoCube, Physik Instrumente) for fine positioning and insertion of the nano-pH probe sensors, and a programmable interface for hardware control of the setup. This system is run by custom software written in LabVIEW (National Instruments). All experiments with cells were conducted on an inverted fluorescence microscope (Olympus IX 70) equipped with an eyepiece camera (Dino-Eye, Big C).
Cell culture. […]
Chitosan-modified nanopipettes were inserted to individual cells using a customized scanning ion conductance microscope which detects current feedback for positioning the nanopipettes. […] After the insertion of the nano-pH probe into a cell, linear sweep voltammograms were recorded and the current-responses at a bias potential of 0.6 V were used to calculate the intracellular pH levels of single cells.
The present nano-pH probe can be used to monitor intracellular pH changes during drug therapy. […] Conventionally, the change in pH has been measured indirectly by introduction of fluorescent dye (BCECF-AM)^47,48. […] The measured pH levels stabilized by 4 min post NPPB introduction. […]

In the case of `O=C(O)c1cc([N+](=O)[O-])ccc1NCCCc1ccccc1` [NPPB, 5-nitro-2-(3-phenylpropylamino)-benzoate], for the setting “100 μM NPPB”, the “time by which measured pH levels stabilized post NPPB introduction” value is not above 4 min and the “time within which intracellular pH level dropped significantly after introduction of NPPB” value was not above 2 min. For the same compound, the “lowest intracellular pH level after introduction of NPPB” value (100 μM NPPB in cell media, readings every 21 sec for 7 min, baseline around 7) was 2.5.
